{
  "source": "patent US9187472B2",
  "about": "(AbbVie Inc., priority 2012, dated 2015)",
  "data": [
    {"system": "PC3 cells", "test": "NAMPT Cell Proliferation Assay", "assay_type": "cell-based", "settings": "5 days incubation, cell viability by Cell Titer Glo", "procedure,_shortened": "(§1)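 Cell Titer Glo viability after 5-day exposure (37° C, 5% CO2); PC3, 500 cells/well, RPMI + 10% heat-inactivated FBS, overnight attachment before dosing. Dose range 10 μM to 1×10^−5 μM, 10-fold steps. IC50 = sigmoidal fit of % inhibition.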", "units": {"IC50": "nM"}, "values": [
      {"smiles": "O=C(NCc1ccn2ccnc2c1)c1ccc(C2CCN(C(=O)/C=C/c3ccccn3)CC2)cc1", "note": "[Example 991, -(imidazo[1,2-a]pyridin-7-ylmethyl)-4-{1-[(2E)-3-(pyridin-2-yl)prop-2-enoyl]piperidin-4-yl}benzamide]", "IC50": 66.9}
    ]},
    {"system": "PC3 cells", "test": "NAMPT Cell Proliferation Assay", "assay_type": "cell-based", "settings": "Homo sapiens, PC-3, 120 h, 5 days incubation, cell viability by Cell Titer Glo", "procedure,_shortened": "as §1", "units": {"IC50": "nM"}, "values": [
      {"smiles": "CC1(Cn2cc(-c3ccc(C(=O)NCc4ccn5ccnc5c4)s3)cn2)CCN(C(=O)CSC[C@H](N)C(=O)O)CC1", "note": "[Example 1164, S-(2-{4-[(4-{5-[(imidazo[1,2-a]pyridin-7-ylmethyl)carbamoyl]thiophen-2-yl}-1H-pyrazol-1-yl)methyl]-4-methylpiperidin-1-yl}-2-oxoethyl)-L-cysteine]", "IC50": 158},
      {"smiles": "Cn1ncc2ccc(C(=O)N3CCC(c4ccc(C(=O)NCc5ccn6ccnc6c5)cc4)CC3)cc21", "note": "[Example 1086, N-(imidazo[1,2-a]pyridin-7-ylmethyl)-4-{1-[(1-methyl-1H-indazol-6-yl)carbonyl]piperidin-4-yl}benzamide]", "IC50": 9.93},
      {"smiles": "COc1cccc(CC(=O)N2CCC(c3ccc(C(=O)NCc4ccn5ccnc5c4)cc3)CC2)c1", "note": "[Example 933, N-(imidazo[1,2-a]pyridin-7-ylmethyl)-4-{1-[(3-methoxyphenyl)acetyl]piperidin-4-yl}benzamide]", "IC50": 71.7},
      {"smiles": "O=C(NCc1ccn2ccnc2c1)c1ccc(C2CCN(C(=O)c3ccc(F)cc3F)CC2)s1", "note": "[Example 888, 5-[1-(2,4-difluorobenzoyl)piperidin-4-yl]-N-(imidazo[1,2-a]pyridin-7-ylmethyl)thiophene-2-carboxamide]", "IC50": 0.494},
      {"smiles": "O=C(NCc1ccc2ncnn2c1)c1ccc(C2CCN(C(=O)c3ccc(F)cc3F)CC2)s1", "note": "[Example 834, 5-[1-(2,4-difluorobenzoyl)piperidin-4-yl]-N-([1,2,4]triazolo[1,5-a]pyridin-6-ylmethyl)thiophene-2-carboxamide]", "IC50": 12.7},
      {"smiles": "O=C(NCc1ccn2ccnc2c1)c1ccc(C2CCN(C(=O)c3cc(C4CC4)no3)CC2)cc1", "note": "[Example 1062, 4-{1-[(3-cyclopropyl-1,2-oxazol-5-yl)carbonyl]piperidin-4-yl}-N-(imidazo[1,2-a]pyridin-7-ylmethyl)benzamide]", "IC50": 17},
      {"smiles": "COc1cccc(OC)c1C(=O)N1CCC(c2ccc(C(=O)NCc3ccn4ccnc4c3)cc2)CC1", "note": "[Example 927, 4-[1-(2,6-dimethoxybenzoyl)piperidin-4-yl]-N-(imidazo[1,2-a]pyridin-7-ylmethyl)benzamide]", "IC50": 7.13},
      {"smiles": "O=C(NCc1ccn2ccnc2c1)Nc1ccc(C2CCN(C(=O)C3CCOCC3)CC2)cc1F", "note": "[Example 1074, 1-{2-fluoro-4-[1-(tetrahydro-2H-pyran-4-ylcarbonyl)piperidin-4-yl]phenyl}-3-(imidazo[1,2-a]pyridin-7-ylmethyl)urea]", "IC50": 14.4},
      {"smiles": "O=C(NCc1ccn2ccnc2c1)c1ccc(C2CCN(C(=O)c3nc4ccccc4s3)CC2)cc1", "note": "[Example 1001, 4-[1-(1,3-benzothiazol-2-ylcarbonyl)piperidin-4-yl]-N-(imidazo[1,2-a]pyridin-7-ylmethyl)benzamide]", "IC50": 95.3},
      {"smiles": "O=C(NCc1ccn2ccnc2c1)Nc1ccc(C2CCN(C(=O)c3onc4c3CCCC4)CC2)cc1", "note": "[Example 1015, 1-(imidazo[1,2-a]pyridin-7-ylmethyl)-3-{4-[1-(4,5,6,7-tetrahydro-2,1-benzoxazol-3-ylcarbonyl)piperidin-4-yl]phenyl}urea]", "IC50": 1.68},
      {"smiles": "Cc1nn(C)c(C(=O)N2CCC(c3ccc(NC(=O)NCc4ccn5ccnc5c4)cc3)CC2)c1Cl", "note": "[Example 1124, 1-(4-{1-[(4-chloro-1,3-dimethyl-1H-pyrazol-5-yl)carbonyl]piperidin-4-yl}phenyl)-3-(imidazo[1,2-a]pyridin-7-ylmethyl)urea]", "IC50": 0.344},
      {"smiles": "O=C(NCc1ccn2ccnc2c1)c1ccc(C2CCN(C(=O)c3cc(F)ccc3F)CC2)s1", "note": "[Example 887, 5-[1-(2,5-difluorobenzoyl)piperidin-4-yl]-N-(imidazo[1,2-a]pyridin-7-ylmethyl)thiophene-2-carboxamide]", "IC50": 0.214},
      {"smiles": "CC1CC(C#N)(C(=O)N2CCC(c3ccc(C(=O)NCc4ccn5ccnc5c4)cc3)CC2)C1", "note": "(stereo not shown) [Example 1090, 4-{1-[(1-cyano-3-methylcyclobutyl)carbonyl]piperidin-4-yl}-N-(imidazo[1,2-a]pyridin-7-ylmethyl)benzamide]", "IC50": 5.42},
      {"smiles": "O=C(Cc1ccccc1)Nc1ccc(C(=O)NCc2ccn3ccnc3c2)cc1", "note": "[Example 868, N-(imidazo[1,2-a]pyridin-7-ylmethyl)-4-[(phenylacetyl)amino]benzamide]", "IC50": 86.9},
      {"smiles": "N#Cc1cnc(C(=O)N2CCC(c3ccc(NC(=O)NCc4ccn5ccnc5c4)cc3)CC2)c(Cl)c1", "note": "[Example 1126, 1-(4-{1-[(3-chloro-5-cyanopyridin-2-yl)carbonyl]piperidin-4-yl}phenyl)-3-(imidazo[1,2-a]pyridin-7-ylmethyl)urea]", "IC50": 2.36},
      {"smiles": "O=C(NCc1ccn2ccnc2c1)Nc1ccc(C2CCN(C(=O)c3cc4occc4s3)CC2)cc1", "note": "[Example 1129, 1-(imidazo[1,2-a]pyridin-7-ylmethyl)-3-{4-[1-(thieno[3,2-b]furan-5-ylcarbonyl)piperidin-4-yl]phenyl}urea]", "IC50": 8.05},
      {"smiles": "O=C(NCc1ccn2ccnc2c1)Nc1ccc(C2CCN(C(=O)c3cnc4ccccc4n3)CC2)cc1", "note": "[Example 1038, 1-(imidazo[1,2-a]pyridin-7-ylmethyl)-3-{4-[1-(quinoxalin-2-ylcarbonyl)piperidin-4-yl]phenyl}urea]", "IC50": 7.84},
      {"smiles": "O=C(NCc1ccn2ccnc2c1)c1ccc(C2CCN(C(=O)c3ccc4snnc4c3)CC2)cc1", "note": "[Example 1004, 4-[1-(1,2,3-benzothiadiazol-5-ylcarbonyl)piperidin-4-yl]-N-(imidazo[1,2-a]pyridin-7-ylmethyl)benzamide]", "IC50": 56.7},
      {"smiles": "N#Cc1ccsc1C(=O)N1CCC(c2ccc(NC(=O)NCc3ccn4ccnc4c3)cc2)CC1", "note": "[Example 1139, 1-(4-{1-[(3-cyanothiophen-2-yl)carbonyl]piperidin-4-yl}phenyl)-3-(imidazo[1,2-a]pyridin-7-ylmethyl)urea]", "IC50": 1.41},
      {"smiles": "O=C(NCc1ccc2ncnn2c1)c1ccc(C2CCN(C(=O)CCC(F)(F)F)CC2)s1", "note": "[Example 847, N-([1,2,4]triazolo[1,5-a]pyridin-6-ylmethyl)-5-[1-(4,4,4-trifluorobutanoyl)piperidin-4-yl]thiophene-2-carboxamide]", "IC50": 93.6},
      {"smiles": "CCC1CCCCN1C(=O)C(=O)N1CCC(c2ccc(C(=O)NCc3ccn4ccnc4c3)cc2)CC1", "note": "(stereo not shown) [Example 1117, 4-{1-[(2-ethylpiperidin-1-yl)(oxo)acetyl]piperidin-4-yl}-N-(imidazo[1,2-a]pyridin-7-ylmethyl)benzamide]", "IC50": 65.7},
      {"smiles": "O=C(NCc1ccc2ncnn2c1)c1ccc(S(=O)(=O)c2ccccc2)cc1", "note": "[Example 882, 4-(phenylsulfonyl)-N-([1,2,4]triazolo[1,5-a]pyridin-6-ylmethyl)benzamide]", "IC50": "> 10000"},
      {"smiles": "CCN(CC)CCC(=O)N1CCC(c2ccc(NC(=O)NCc3ccn4ccnc4c3)cc2)CC1", "note": "[Example 950, 1-{4-[1-(N,N-diethyl-beta-alanyl)piperidin-4-yl]phenyl}-3-(imidazo[1,2-a]pyridin-7-ylmethyl)urea]", "IC50": 634},
      {"smiles": "COc1ccccc1CC(=O)N1CCC(c2ccc(NC(=O)NCc3ccn4ccnc4c3)cc2)CC1", "note": "[Example 947, 1-(imidazo[1,2-a]pyridin-7-ylmethyl)-3-(4-{1-[(2-methoxyphenyl)acetyl]piperidin-4-yl}phenyl)urea]", "IC50": 3.28},
      {"smiles": "CC(C)CC(=O)N1CCC(c2ccc(C(=O)NCc3ccc4ncnn4c3)s2)CC1", "note": "[Example 843, 5-[1-(3-methylbutanoyl)piperidin-4-yl]-N-([1,2,4]triazolo[1,5-a]pyridin-6-ylmethyl)thiophene-2-carboxamide]", "IC50": 17.2},
      {"smiles": "CC1(Cn2cc(-c3ccc(C(=O)NCc4ccn5ccnc5c4)s3)cn2)CCN(C(=O)CCOCCOCCOCCOCCN)CC1", "note": "[Example 1165, 5-(1-{[1-(15-amino-4,7,10,13-tetraoxapentadecan-1-oyl)-4-methylpiperidin-4-yl]methyl}-1H-pyrazol-4-yl)-N-(imidazo[1,2-a]pyridin-7-ylmethyl)thiophene-2-carboxamide]", "IC50": 577},
      {"smiles": "CC(C)(C)OC(=O)N1CCC(c2ccc(NC(=O)Cc3ccn4ccnc4c3)cc2)CC1", "note": "[Example 900, tert-butyl 4-{4-[(imidazo[1,2-a]pyridin-7-ylacetyl)amino]phenyl}piperidine-1-carboxylate]", "IC50": 17.4},
      {"smiles": "CC(C)c1nc(C(=O)N2CCC(c3ccc(C(=O)NCc4ccn5ccnc5c4)cc3)CC2)co1", "note": "[Example 1113, N-(imidazo[1,2-a]pyridin-7-ylmethyl)-4-(1-{[2-(propan-2-yl)-1,3-oxazol-4-yl]carbonyl}piperidin-4-yl)benzamide]", "IC50": 23.1},
      {"smiles": "CC(Oc1cccc(F)c1)C(=O)N1CCC(c2ccc(C(=O)NCc3ccn4ccnc4c3)cc2)CC1", "note": "(stereo not shown) [Example 968, 4-{1-[2-(3-fluorophenoxy)propanoyl]piperidin-4-yl}-N-(imidazo[1,2-a]pyridin-7-ylmethyl)benzamide]", "IC50": 1.77},
      {"smiles": "O=C(NCc1ccn2ccnc2c1)c1ccc(C2CCN(C(=O)c3ccnn3C3CCCC3)CC2)cc1", "note": "[Example 1101, 4-{1-[(1-cyclopentyl-1H-pyrazol-5-yl)carbonyl]piperidin-4-yl}-N-(imidazo[1,2-a]pyridin-7-ylmethyl)benzamide]", "IC50": 2.06},
      {"smiles": "O=C(NCc1ccn2ccnc2c1)c1ccc(C(=O)NCc2cc(F)ccc2F)cc1", "note": "[Example 909, N-(2,5-difluorobenzyl)-N′-(imidazo[1,2-a]pyridin-7-ylmethyl)benzene-1,4-dicarboxamide]", "IC50": 7210},
      {"smiles": "O=C(NCc1ccn2ccnc2c1)Nc1ccc(C2CCN(C(=O)c3ccnc(Cl)c3F)CC2)cc1", "note": "[Example 1018, 1-(4-{1-[(2-chloro-3-fluoropyridin-4-yl)carbonyl]piperidin-4-yl}phenyl)-3-(imidazo[1,2-a]pyridin-7-ylmethyl)urea]", "IC50": 1.64},
      {"smiles": "O=C(NCc1ccn2ccnc2c1)Nc1ccc(C2CCN(C(=O)c3cc(C4CC4)no3)CC2)cc1", "note": "[Example 1034, 1-(4-{1-[(3-cyclopropyl-1,2-oxazol-5-yl)carbonyl]piperidin-4-yl}phenyl)-3-(imidazo[1,2-a]pyridin-7-ylmethyl)urea]", "IC50": 6.29}
    ]}
  ]
}
